What all share (format): physicochemical
A short description of series [1]: Solubility by UV-Visible spectroscopy in aqueous 0.1 M HCl (pH 1) at 22° C. Particulars: for solubility at 24 h: 22 °C, pH 1, simulated gastric fluid, thermodynamic from solid; for solubility: pH 1. As for the experimental part: The solubility of crystalline lercanidipine besylate, napadisylate and hydrochloride and amorphous lercanidipine besylate was evaluated by UV-Visible spectroscopy in aqueous 0.1 M HCl (pH 1) at 22° C. Suspensions of approximately 0.3 mg/ml of the respective compounds were prepared in an aqueous 0.1 M HCl and equilibrated by shaking for 24 hours. Following equilibration, the samples were filtered (0.1 μm filter) and the concentration was determined photometrically using Perkin Elmer Lambda 16 (Überlingen, Germany). Reference measurements were performed with 20% acetonitrile as a co-solvent.

The nature of series [2]: Hygroscopicity by DVS analysis (water absorption analyzer). The settings on record: humidity cycling between 0 and 95% RH at 25° C. As to the method:
The hygroscopicity of both amorphous and crystalline lercanidipine salts was determined by DVS analysis using a water absorption analyzer (Surface Measurement System Ltd., Marion, Buckinghamshire, UK). The analysis were carried out according to the following conditions: 10-15 mg of sample were placed on a quartz or platinum holder, the holder was placed in-turn on a microbalance, and the sample underwent humidity cycling between 0 and 95% relative humidity (RH) at 25° C. (50-95-0-95-0-50% at a rate of 5% RH/hr).

The nature of series [3]: Stability of crystalline salts (statement, no method).

The values below come from patent US7683179B2, “Lercanidipine salts” (Recordati Ireland Limited, priority 2004, dated 2010).

“Also recorded” adds a separate entry of the source. Where a name gives a salt, the structure may show the parent alone. Read-outs that look alike come from different tables or passages of the source.

For `COC(=O)C1=C(C)NC(C)=C(C(=O)OC(C)(C)CN(C)CCC(c2ccccc2)c2ccccc2)C1c1cccc([N+](=O)[O-])c1` (stereo not shown) [Crystalline hydrochloride, lercanidipine hydrochloride, reference compound], the results for the solubility at 24 h in series [1] (Solubility) and in series [1] (solubility in 0.1 N HCl) were 10 µg/mL and around 10 µg/mL, respectively.

On to `COC(=O)C1=C(C)NC(C)=C(C(=O)OC(C)(C)CN(C)CCC(c2ccccc2)c2ccccc2)C1c1cccc([N+](=O)[O-])c1.COC(=O)C1=C(C)NC(C)=C(C(=O)OC(C)(C)CN(C)CCC(c2ccccc2)c2ccccc2)C1c1cccc([N+](=O)[O-])c1.O=S(=O)(O)c1cccc2c(S(=O)(=O)O)cccc12` (stereo not shown) [Crystalline napadisylate, lercanidipine napadisylate], for which, in series [1], the “solubility compared with other salt forms” value is “lower solubility than the amorphous salt”, the “solubility in 0.1 M HCl at 22° C.” value is on record as “about 3.5 mg/L” and the concentration in solution (solubility) came to 3.5 µg/mL. Besides, the Hygroscopicity result in series [2] was “hygroscopic”. Besides, in series [3], the stability result is reported as “good stability”.

In series [1], “lercanidipine besylate [Amorphous besylate]” displayed a solubility of 155 µg/mL. For the same compound, the Hygroscopicity result in series [2] is “non-hygroscopic”.

For “lercanidipine besylate [Crystalline besylate]”, the “solubility compared with other salt forms” value in series [1] (0.1 M / 0.1 N HCl, comparison in words) was “lower solubility than the amorphous salt; also recorded: substantially more soluble than either crystalline hydrochloride or napadisylate”. In addition, the “solubility in 0.1 M HCl at 22° C.” value in series [1] (0.1 M HCl, 22° C.) is reported as “about 87 mg/L”. For the same compound, the Hygroscopicity entry in series [2] is reported as “non-hygroscopic”. Also, the stability result in series [3] is “good stability”.

In general, solubility refers to the dissolved amount per volume that the medium holds. Low values mean little dissolved substance, high ones much dissolved substance.
